Test results published in US9902702B2, “Spirocycloheptanes as inhibitors of rock” (BRISTOL-MYERS SQUIBB COMPANY, priority 2014, dated 2018).

molecular target: ROCK2 (Homo sapiens, UniProt O75116); assay: ROCK assay: phosphorylation of FITC peptide substrate, LABCHIP 3000 mobility shift; format: biochemical; conditions: 5 μM ATP, 1.5 μM peptide substrate; read-out: ROCK2 Activity (ROCK IC50 range)
In short: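 Rho kinase variant phosphorylates 1.5 μM FITC-AHA-AKRRRLSSLRA-OH with 5 μM ATP in 20 mM HEPES pH 7.5, 20 mM MgCl2, 0.015% Brij-35, 4 mM DTT, DMSO <2%. EDTA stops the reaction, and phospho and non-phospho peptides are resolved by LabChip 3000 mobility shift. IC50 from dose-response curve fit.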

Sequence of ROCK2 (O75116 whole entry, species assumed): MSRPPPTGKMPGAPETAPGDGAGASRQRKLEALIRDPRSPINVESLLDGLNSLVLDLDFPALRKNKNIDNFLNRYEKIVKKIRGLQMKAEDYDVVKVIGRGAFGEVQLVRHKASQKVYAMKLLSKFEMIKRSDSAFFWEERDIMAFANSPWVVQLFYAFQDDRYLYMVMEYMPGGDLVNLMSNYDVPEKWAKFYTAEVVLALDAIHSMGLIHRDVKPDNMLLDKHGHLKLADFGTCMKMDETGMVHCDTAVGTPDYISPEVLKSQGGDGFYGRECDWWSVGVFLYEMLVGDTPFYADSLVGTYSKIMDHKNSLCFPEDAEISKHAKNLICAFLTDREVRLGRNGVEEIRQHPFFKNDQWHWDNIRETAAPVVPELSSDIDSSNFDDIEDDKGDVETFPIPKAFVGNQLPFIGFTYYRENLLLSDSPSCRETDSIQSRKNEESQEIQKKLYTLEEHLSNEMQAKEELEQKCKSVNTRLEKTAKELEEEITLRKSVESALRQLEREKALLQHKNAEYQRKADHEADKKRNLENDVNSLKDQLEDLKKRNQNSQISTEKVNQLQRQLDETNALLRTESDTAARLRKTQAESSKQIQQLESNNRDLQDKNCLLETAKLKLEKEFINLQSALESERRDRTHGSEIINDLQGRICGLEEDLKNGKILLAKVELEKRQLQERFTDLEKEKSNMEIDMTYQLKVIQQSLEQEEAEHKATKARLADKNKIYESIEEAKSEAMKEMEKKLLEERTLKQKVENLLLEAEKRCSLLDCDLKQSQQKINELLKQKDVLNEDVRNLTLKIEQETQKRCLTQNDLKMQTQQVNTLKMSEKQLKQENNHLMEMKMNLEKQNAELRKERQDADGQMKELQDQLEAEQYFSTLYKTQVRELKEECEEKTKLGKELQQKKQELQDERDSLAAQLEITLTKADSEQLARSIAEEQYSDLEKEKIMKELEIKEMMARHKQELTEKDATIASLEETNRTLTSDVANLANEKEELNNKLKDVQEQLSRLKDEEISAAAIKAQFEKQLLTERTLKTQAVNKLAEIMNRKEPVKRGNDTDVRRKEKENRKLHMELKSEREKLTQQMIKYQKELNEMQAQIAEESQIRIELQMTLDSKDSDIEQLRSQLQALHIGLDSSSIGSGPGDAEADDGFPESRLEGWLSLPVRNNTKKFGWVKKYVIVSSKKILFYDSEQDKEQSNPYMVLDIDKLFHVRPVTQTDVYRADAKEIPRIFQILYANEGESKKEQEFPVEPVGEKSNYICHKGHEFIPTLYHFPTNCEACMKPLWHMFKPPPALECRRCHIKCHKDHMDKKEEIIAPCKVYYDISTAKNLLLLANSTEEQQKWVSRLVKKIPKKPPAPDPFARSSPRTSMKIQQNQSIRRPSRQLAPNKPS

Row | SMILES | IC50 [nM]
1 | [H][C@]1(c2n[nH]c(=O)c3ccccc32)C[C@]2(C[C@@H](NC(=O)C3NCc4ccccc43)C2)C1 (stereo partly drawn) [Example 323, N-((aR)-6-(4-oxo-3,4-dihydrophthalazin-1-yl)spiro[3.3]heptan-2-yl)isoindoline-1-carboxamide] | 100 to 2100
2 | O=C(N[C@H]1CC2(C1)C[C@H](c1n[nH]c(=O)c3ccccc31)C2)c1cc2ccccn2n1 (stereo partly drawn) [Example 325, N-((aR)-6-(4-oxo-3,4-dihydrophthalazin-1-yl)spiro[3.3]heptan-2-yl)pyrazolo[1,5-a]pyridine-2-carboxamide] | 5.1 to 15
3 | [H][C@]1(c2n[nH]c(=O)c3ccccc32)C[C@]2(C[C@@H](NC(=O)c3cc4ccccc4cn3)C2)C1 (stereo partly drawn) [Example 326, N-((aR)-6-(4-oxo-3,4-dihydrophthalazin-1-yl)spiro[3.3]heptan-2-yl)isoquinoline-3-carboxamide] | 2.01 to 5
4 | [H][C@]1(c2n[nH]c(=O)c3ccccc32)C[C@]2(C[C@@H](NC(=O)c3cc4cccc(O)c4[nH]3)C2)C1 (stereo partly drawn) [Example 327, 7-hydroxy-N-((aR)-6-(4-oxo-3,4-dihydrophthalazin-1-yl)spiro[3.3]heptan-2-yl)-1H-indole-2-carboxamide] | 2.01 to 5
5 | [H][C@]1(c2n[nH]c(=O)c3ccccc32)C[C@]2(C[C@@H](NC(=O)c3cc4cccc(Cl)c4[nH]3)C2)C1 (stereo partly drawn) [Example 328, 7-chloro-N-((aR)-6-(4-oxo-3,4-dihydrophthalazin-1-yl)spiro[3.3]heptan-2-yl)-1H-indole-2-carboxamide] | 2.01 to 5
6 | [H][C@]1(c2n[nH]c(=O)c3ccccc32)C[C@]2(C[C@@H](NC(=O)c3cc4ccc(F)c(C)c4[nH]3)C2)C1 (stereo partly drawn) [Example 329, 6-fluoro-7-methyl-N-((aR)-6-(4-oxo-3,4-dihydrophthalazin-1-yl)spiro[3.3]heptan-2-yl)-1H-indole-2-carboxamide] | 0.2 to 2
7 | [H][C@]1(c2n[nH]c(=O)c3ccccc32)C[C@]2(C[C@@H](NC(=O)c3ccc4ccccc4n3)C2)C1 (stereo partly drawn) [Example 330, N-((aR)-6-(4-oxo-3,4-dihydrophthalazin-1-yl)spiro[3.3]heptan-2-yl)quinoline-2-carboxamide] | 15.1 to 100
8 | [H][C@]1(c2n[nH]c(=O)c3ccccc32)C[C@]2(C[C@@H](NC(=O)c3ccc(Br)cc3)C2)C1 (stereo partly drawn) [Example 331, 4-bromo-N-((aR)-6-(4-oxo-3,4-dihydrophthalazin-1-yl)spiro[3.3]heptan-2-yl)benzamide] | 5.1 to 15
9 | [H][C@]1(c2n[nH]c(=O)c3ccccc32)C[C@]2(C[C@@H](NC(=O)c3cc4cccc(C(F)(F)F)c4[nH]3)C2)C1 (stereo partly drawn) [Example 332, N-((aR)-6-(4-oxo-3,4-dihydrophthalazin-1-yl)spiro[3.3]heptan-2-yl)-7-(trifluoromethyl)-1H-indole-2-carboxamide] | 0.2 to 2
10 | [H][C@]1(c2n[nH]c(=O)c3ccccc32)C[C@]2(C[C@@H](NC(=O)c3cc4cccc(F)c4[nH]3)C2)C1 (stereo partly drawn) [Example 333, 7-fluoro-N-((aR)-6-(4-oxo-3,4-dihydrophthalazin-1-yl)spiro[3.3]heptan-2-yl)-1H-indole-2-carboxamide] | 5.1 to 15
11 | [H][C@]1(c2n[nH]c(=O)c3ccccc32)C[C@]2(C[C@@H](NC(=O)c3cc4c(OC)ccc(OC)c4[nH]3)C2)C1 (stereo partly drawn) [Example 334, 4,7-dimethoxy-N-((aR)-6-(4-oxo-3,4-dihydrophthalazin-1-yl)spiro[3.3]heptan-2-yl)-1H-indole-2-carboxamide] | 5.1 to 15
12 | [H][C@]1(c2n[nH]c(=O)c3ccccc32)C[C@]2(C[C@@H](NC(=O)c3cc4cc(F)cc(S(C)(=O)=O)c4[nH]3)C2)C1 (stereo partly drawn) [Example 335, 5-fluoro-7-(methylsulfonyl)-N-((aR)-6-(4-oxo-3,4-dihydrophthalazin-1-yl)spiro[3.3]heptan-2-yl)-1H-indole-2-carboxamide] | 2.01 to 5
13 | [H][C@]1(c2n[nH]c(=O)c3ccccc32)C[C@]2(C[C@@H](NC(=O)c3cccc(-n4cccn4)c3)C2)C1 (stereo partly drawn) [Example 336, N-((aR)-6-(4-oxo-3,4-dihydrophthalazin-1-yl)spiro[3.3]heptan-2-yl)-3-(1H-pyrazol-1-yl)benzamide] | 15.1 to 100
14 | [H][C@]1(c2n[nH]c(=O)c3ccccc32)C[C@]2(C[C@@H](NC(=O)c3ccc(-c4cn[nH]c4)cc3)C2)C1 (stereo partly drawn) [Example 337, N-((aR)-6-(4-oxo-3,4-dihydrophthalazin-1-yl)spiro[3.3]heptan-2-yl)-4-(1H-pyrazol-4-yl)benzamide] | 5.1 to 15
15 | [H][C@]1(c2n[nH]c(=O)c3ccccc32)C[C@]2(C[C@@H](NC(=O)c3cccc(OCCN4CCOCC4)c3)C2)C1 (stereo partly drawn) [Example 338, 3-(2-morpholino-ethoxy)-N-((aR)-6-(4-oxo-3,4-dihydrophthalazin-1-yl)spiro[3.3]heptan-2-yl)benzamide] | 15.1 to 100
16 | O=C(NC1CC2(C1)CC(c1n[nH]c(=O)c3ccccc13)C2)c1cccc(-c2cn[nH]c2)c1 [Example 339, N-((aR)-6-(4-oxo-3,4-dihydrophthalazin-1-yl)spiro[3.3]heptan-2-yl)-3-(1H-pyrazol-4-yl)benzamide] | 15.1 to 100

Row | SMILES | IC50 [nM]
17 | [H][C@]1(c2n[nH]c(=O)c3ccccc32)C[C@]2(C[C@@H](NC(=O)c3cccc(-c4nc(C)cs4)c3)C2)C1 (stereo partly drawn) [Example 340, 3-(4-methylthiazol-2-yl)-N-((aR)-6-(4-oxo-3,4-dihydrophthalazin-1-yl)spiro[3.3]heptan-2-yl)benzamide] | 5.1 to 15
18 | [H][C@]1(c2n[nH]c(=O)c3ccccc32)C[C@]2(C[C@@H](NC(=O)c3ccc(OC)nc3)C2)C1 (stereo partly drawn) [Example 341, 6-methoxy-N-((aR)-6-(4-oxo-3,4-dihydrophthalazin-1-yl)spiro[3.3]heptan-2-yl)nicotinamide] | 15.1 to 100
19 | [H][C@]1(c2n[nH]c(=O)c3ccccc32)C[C@]2(C[C@@H](NC(=O)c3ccc(C(F)(F)F)nc3)C2)C1 (stereo partly drawn) [Example 342, N-((aR)-6-(4-oxo-3,4-dihydrophthalazin-1-yl)spiro[3.3]heptan-2-yl)-6-(trifluoromethyl) nicotinamide] | 100 to 2100
20 | [H][C@]1(c2n[nH]c(=O)c3ccccc32)C[C@]2(C[C@@H](NC(=O)c3ccc(C)nc3O)C2)C1 (stereo partly drawn) [Example 343, 2-hydroxy-6-methyl-N-((aR)-6-(4-oxo-3,4-dihydrophthalazin-1-yl)spiro[3.3]heptan-2-yl)nicotinamide] | 15.1 to 100
21 | [H][C@]1(c2n[nH]c(=O)c3ccccc32)C[C@]2(C[C@@H](NC(=O)c3ccc(CCN4CCCC4)nc3)C2)C1 (stereo partly drawn) [Example 344, N-((aR)-6-(4-oxo-3,4-dihydrophthalazin-1-yl)spiro[3.3]heptan-2-yl)-6-(2-(pyrrolidin-1-yl)ethyl)nicotinamide] | 100 to 2100
22 | [H][C@]1(c2n[nH]c(=O)c3ccccc32)C[C@]2(C[C@@H](NC(=O)c3ccc(-c4nn[nH]n4)cc3)C2)C1 (stereo partly drawn) [Example 345, N-((aR)-6-(4-oxo-3,4-dihydrophthalazin-1-yl)spiro[3.3]heptan-2-yl)-4-(2H-tetrazol-5-yl)benzamide] | 100 to 2100
23 | [H][C@]1(c2n[nH]c(=O)c3ccccc32)C[C@]2(C[C@@H](NC(=O)c3ccc(-n4cccn4)nc3)C2)C1 (stereo partly drawn) [Example 346, N-((aR)-6-(4-oxo-3,4-dihydrophthalazin-1-yl)spiro[3.3]heptan-2-yl)-6-(1H-pyrazol-1-yl)nicotinamide] | 15.1 to 100
24 | [H][C@]1(c2n[nH]c(=O)c3ccccc32)C[C@]2(C[C@@H](NC(=O)c3cnc(O)c(Cl)c3)C2)C1 (stereo partly drawn) [Example 347, 5-chloro-6-hydroxy-N-((aR)-6-(4-oxo-3,4-dihydrophthalazin-1-yl)spiro[3.3]heptan-2-yl)nicotinamide] | 100 to 2100
25 | [H][C@]1(c2n[nH]c(=O)c3ccccc32)C[C@]2(C[C@@H](NC(=O)c3ccc(-n4cncn4)cc3)C2)C1 (stereo partly drawn) [Example 348, N-((aR)-6-(4-oxo-3,4-dihydrophthalazin-1-yl)spiro[3.3]heptan-2-yl)-4-(1H-1,2,4-triazol-1-yl)benzamide] | 15.1 to 100
26 | [H][C@]1(c2n[nH]c(=O)c3ccccc32)C[C@]2(C[C@@H](NC(=O)c3ccc(-n4cnc(C)c4)c(OC)c3)C2)C1 (stereo partly drawn) [Example 349, 3-methoxy-4-(4-methyl-1H-imidazol-1-yl)-N-((aR)-6-(4-oxo-3,4-dihydrophthalazin-1-yl)spiro[3.3]heptan-2-yl)benzamide] | 5.1 to 15
27 | [H][C@]1(c2n[nH]c(=O)c3ccccc32)C[C@]2(C[C@@H](NC(=O)c3ccc(-c4cnc(C)s4)c(OC)c3)C2)C1 (stereo partly drawn) [Example 350, 3-methoxy-4-(2-methylthiazol-5-yl)-N-((aR)-6-(4-oxo-3,4-dihydrophthalazin-1-yl)spiro[3.3]heptan-2-yl)benzamide] | 2.01 to 5
28 | COc1ccc(C(=O)NC2CC3(C2)CC(c2n[nH]c(=O)c4ccccc24)C3)nc1 [Example 351, 5-methoxy-N-((aR)-6-(4-oxo-3,4-dihydrophthalazin-1-yl)spiro[3.3]heptan-2-yl)picolinamide] | 100 to 2100
29 | [H][C@]1(c2n[nH]c(=O)c3ccccc32)C[C@]2(C[C@@H](NC(=O)c3cccc(-n4ccnc4)c3)C2)C1 (stereo partly drawn) [Example 352, 3-(1H-imidazol-1-yl)-N-((aR)-6-(4-oxo-3,4-dihydrophthalazin-1-yl)spiro[3.3]heptan-2-yl)benzamide] | 15.1 to 100
30 | [H][C@]1(c2n[nH]c(=O)c3ccccc32)C[C@]2(C[C@@H](NC(=O)c3ccc(OC(C)C)c(C#N)c3)C2)C1 (stereo partly drawn) [Example 353, 3-cyano-4-isopropoxy-N-((aR)-6-(4-oxo-3,4-dihydrophthalazin-1-yl)spiro[3.3]heptan-2-yl)benzamide] | 5.1 to 15
31 | [H][C@]1(c2n[nH]c(=O)c3ccccc32)C[C@]2(C[C@@H](NC(=O)c3cccc(OC(F)F)c3)C2)C1 (stereo partly drawn) [Example 354, 3-(difluoromethoxy)-N-((aR)-6-(4-oxo-3,4-dihydrophthalazin-1-yl)spiro[3.3]heptan-2-yl)benzamide] | 5.1 to 15
